Experimental data reported in ChEMBL document CHEMBL1140537, “DNA cleavage by photolysis of aryl sulfoxides” (Bioorg Med Chem Lett, 2007).
Activity calls are given as the source filed them. No cut-off for these calls is given here.

Legend:
Homo sapiens [1] = species: Homo sapiens; test: Cleavage of DNA at 360 uM
Homo sapiens [2] = species: Homo sapiens; test: Cleavage of DNA at 180 uM in presence of cysteine
Homo sapiens [3] = species: Homo sapiens; test: Cleavage of DNA at 180 uM
Homo sapiens [4] = species: Homo sapiens; test: Cleavage of DNA at 180 uM in anaerobic condition

Structure (SMILES) | Activity (Homo sapiens [1]) | Activity (Homo sapiens [2]) | Activity (Homo sapiens [3]) | Activity (Homo sapiens [4])
C[S+]([O-])c1ccccc1 (centres undefined) | Active |  |  | 
[O-][S+](c1ccccc1)c1ccccc1 |  | inactive | Active | inactive
